Experimental data: ChEMBL document CHEMBL1156584, “Metal-free artificial nucleases based on simple oxime and hydroxylamine scaffolds” (Bioorg Med Chem Lett, 2008)

What was measured:
Escherichia coli [1] = assay: Induction of Escherichia coli DH5alpha pBSK-2 DNA cleavage in HEPES buffer at pH 8.0 after 16 hrs by agarose gel electrophoresis
Escherichia coli [2] = assay: Ratio of Kcat to Km for induction of Escherichia coli DH5alpha pBSK-2 DNA cleavage in HEPES buffer at pH 8.0 after 16 hrs by agarose gel electrophoresis
Escherichia coli [3] = assay: Inhibition of Escherichia coli DH5alpha pBSK-2 DNA cleavage in HEPES buffer at pH 8.0 after 8 hrs by agarose gel electrophoresis in presence of distamycin; parameters: concentration or dose not given beside the values
Escherichia coli [4] = assay: Inhibition of Escherichia coli DH5alpha pBSK-2 DNA cleavage in HEPES buffer at pH 8.0 after 8 hrs by agarose gel electrophoresis in presence of DMSO; parameters: concentration or dose not given beside the values
Escherichia coli [5] = assay: Inhibition of Escherichia coli DH5alpha pBSK-2 DNA cleavage in CHES buffer at pH 9.0 after 8 hrs by agarose gel electrophoresis in presence of glycerol; parameters: scale not given: the % may be the effect or the level left
Escherichia coli [6] = assay: Induction of Escherichia coli DH5alpha pBSK-2 DNA cleavage in CHES buffer at pH 9.0 after 16 hrs by agarose gel electrophoresis
Escherichia coli [7] = assay: Ratio of Kcat to Km for induction of Escherichia coli DH5alpha pBSK-2 DNA cleavage in CHES buffer at pH 9.0 after 16 hrs by agarose gel electrophoresis
Escherichia coli [8] = assay: Induction of Escherichia coli DH5alpha pBSK-2 DNA cleavage in PIPES buffer at pH 7.0 after 16 hrs by agarose gel electrophoresis
Escherichia coli [9] = assay: Ratio of Kcat to Km for induction of Escherichia coli DH5alpha pBSK-2 DNA cleavage in PIPES buffer at pH 7.0 after 16 hrs by agarose gel electrophoresis

Row | Km (Escherichia coli [1]) | kcat (Escherichia coli [1]) | kcat/Km (Escherichia coli [2]) | Activity (Escherichia coli [3]) | Activity (Escherichia coli [4]) | Activity (Escherichia coli [5]) | Km (Escherichia coli [6]) | kcat (Escherichia coli [6]) | kcat/Km (Escherichia coli [7]) | Km (Escherichia coli [8]) | kcat (Escherichia coli [8]) | kcat/Km (Escherichia coli [9]) | SMILES
1 |  |  |  | 61% | 73% | 71% | 70 µM | 424 ×10⁻³ /hr | 1.68 M⁻¹ s⁻¹ |  |  |  | NOCc1ccccc1
2 |  |  |  | 2% | 8% |  |  |  |  | 140 µM | 141 ×10⁻³ /hr | 0.28 M⁻¹ s⁻¹ | CN(C)c1ccc(/C=N/O)cc1
3 | 140 µM | 79 ×10⁻³ /hr | 0.158 M⁻¹ s⁻¹ | 14% | 12% |  |  |  |  |  |  |  | CN(C)c1ccc(CNO)cc1

Second part, the compound before the results:

Row | SMILES | Km (Escherichia coli [1]) | kcat (Escherichia coli [1]) | kcat/Km (Escherichia coli [2]) | Activity (Escherichia coli [3]) | Activity (Escherichia coli [4]) | Activity (Escherichia coli [5]) | Km (Escherichia coli [6]) | kcat (Escherichia coli [6]) | kcat/Km (Escherichia coli [7]) | Km (Escherichia coli [8]) | kcat (Escherichia coli [8]) | kcat/Km (Escherichia coli [9])
4 | ONCc1ccc2c(c1)OCO2 | 60 µM | 187 ×10⁻³ /hr | 0.869 M⁻¹ s⁻¹ | 20% | 16% |  |  |  |  |  |  | 
5 | ON(Cc1ccccc1)Cc1ccccc1 | 110 µM | 157 ×10⁻³ /hr | 0.398 M⁻¹ s⁻¹ | 10% | 14% |  |  |  |  |  |  | 
